{"source": "ChEMBL document CHEMBL5696442", "about": "“Discovery of type II inhibitors of TGFβ-activated kinase 1 (TAK1) and mitogen-activated protein kinase kinase kinase kinase 2 (MAP4K2)” (J Med Chem, 2015)", "key": {"[1]": {"biological_target": "T1, Serine/threonine-protein kinase B-raf (Homo sapiens, UniProt P15056)", "T1 sequence (P15056 whole entry)": "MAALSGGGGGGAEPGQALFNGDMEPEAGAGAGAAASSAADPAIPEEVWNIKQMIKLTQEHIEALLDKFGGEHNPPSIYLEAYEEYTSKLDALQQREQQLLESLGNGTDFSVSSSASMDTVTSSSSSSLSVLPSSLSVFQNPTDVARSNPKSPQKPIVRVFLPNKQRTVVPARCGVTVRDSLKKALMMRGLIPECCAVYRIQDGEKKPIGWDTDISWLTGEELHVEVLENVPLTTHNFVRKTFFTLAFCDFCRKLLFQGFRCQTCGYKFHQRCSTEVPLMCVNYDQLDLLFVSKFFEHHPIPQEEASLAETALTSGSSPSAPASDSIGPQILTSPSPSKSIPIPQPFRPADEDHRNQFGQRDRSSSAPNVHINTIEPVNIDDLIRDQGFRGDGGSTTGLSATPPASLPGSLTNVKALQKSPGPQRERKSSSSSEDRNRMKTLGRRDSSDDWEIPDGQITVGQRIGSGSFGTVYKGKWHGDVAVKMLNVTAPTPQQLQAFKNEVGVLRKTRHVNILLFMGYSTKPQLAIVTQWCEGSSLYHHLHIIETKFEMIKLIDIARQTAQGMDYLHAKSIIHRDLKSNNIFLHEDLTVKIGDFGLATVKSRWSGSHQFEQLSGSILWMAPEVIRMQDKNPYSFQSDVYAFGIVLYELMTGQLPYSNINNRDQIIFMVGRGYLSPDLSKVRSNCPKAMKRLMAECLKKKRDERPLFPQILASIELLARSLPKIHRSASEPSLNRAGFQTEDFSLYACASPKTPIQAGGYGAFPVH", "assay": "Inhibition of BRAF Lys2 labeling site in human Huh-7 cell lysate at 1 uM by KiNativ Profiling analysis relative to control", "type": "subcellular"}, "[2]": {"biological_target": "Calcium/calmodulin-dependent protein kinase type II subunit delta (Homo sapiens) (UniProt Q13557)", "assay": "Inhibition of CaMK2d Lys1 labeling site harbouring IPTGQEYAAKIINTK in human Huh-7 cell lysate at 1 uM by KiNativ Profiling analysis relative to control", "type": "subcellular"}, "[3]": {"biological_target": "Ribosomal protein S6 kinase beta-2 (Homo sapiens) (UniProt Q9UBS0)", "assay": "Inhibition of p70S6Kb ATP labeling site in human Huh-7 cell lysate at 1 uM by KiNativ Profiling analysis relative to control", "type": "subcellular"}, "[4]": {"biological_target": "Phosphatidylinositol 4-kinase type 2-beta (Homo sapiens) (UniProt Q8TCG2)", "assay": "Inhibition of PI4K2B ATP labeling site in human Huh-7 cell lysate at 1 uM by KiNativ Profiling analysis relative to control", "type": "subcellular"}, "[5]": {"biological_target": "T2, Phosphatidylinositol 5-phosphate 4-kinase type-2 gamma (Homo sapiens) (UniProt Q8TBX8)", "T2 sequence (whole entry)": "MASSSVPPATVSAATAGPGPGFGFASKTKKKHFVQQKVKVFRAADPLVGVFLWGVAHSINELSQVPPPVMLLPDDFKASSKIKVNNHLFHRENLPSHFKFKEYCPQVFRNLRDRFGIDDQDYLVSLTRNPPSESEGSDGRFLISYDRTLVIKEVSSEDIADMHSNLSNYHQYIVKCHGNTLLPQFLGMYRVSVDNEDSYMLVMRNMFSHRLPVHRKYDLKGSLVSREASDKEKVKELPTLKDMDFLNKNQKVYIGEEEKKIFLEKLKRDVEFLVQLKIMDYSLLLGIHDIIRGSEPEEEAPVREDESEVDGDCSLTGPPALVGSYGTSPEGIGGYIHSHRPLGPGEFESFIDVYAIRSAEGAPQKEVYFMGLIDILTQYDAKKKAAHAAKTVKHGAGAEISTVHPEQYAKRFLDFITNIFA", "assay": "Inhibition of PIP4K2C ATP labeling site harbouring VKELPTLKDMDFLNK in human Huh-7 cell lysate at 1 uM by KiNativ Profiling analysis relative to control", "type": "subcellular"}, "[6]": {"biological_target": "Ribosomal protein S6 kinase alpha-3 (Homo sapiens) (UniProt P51812)", "sequence (P51812 whole entry, the tested form may be a part)": "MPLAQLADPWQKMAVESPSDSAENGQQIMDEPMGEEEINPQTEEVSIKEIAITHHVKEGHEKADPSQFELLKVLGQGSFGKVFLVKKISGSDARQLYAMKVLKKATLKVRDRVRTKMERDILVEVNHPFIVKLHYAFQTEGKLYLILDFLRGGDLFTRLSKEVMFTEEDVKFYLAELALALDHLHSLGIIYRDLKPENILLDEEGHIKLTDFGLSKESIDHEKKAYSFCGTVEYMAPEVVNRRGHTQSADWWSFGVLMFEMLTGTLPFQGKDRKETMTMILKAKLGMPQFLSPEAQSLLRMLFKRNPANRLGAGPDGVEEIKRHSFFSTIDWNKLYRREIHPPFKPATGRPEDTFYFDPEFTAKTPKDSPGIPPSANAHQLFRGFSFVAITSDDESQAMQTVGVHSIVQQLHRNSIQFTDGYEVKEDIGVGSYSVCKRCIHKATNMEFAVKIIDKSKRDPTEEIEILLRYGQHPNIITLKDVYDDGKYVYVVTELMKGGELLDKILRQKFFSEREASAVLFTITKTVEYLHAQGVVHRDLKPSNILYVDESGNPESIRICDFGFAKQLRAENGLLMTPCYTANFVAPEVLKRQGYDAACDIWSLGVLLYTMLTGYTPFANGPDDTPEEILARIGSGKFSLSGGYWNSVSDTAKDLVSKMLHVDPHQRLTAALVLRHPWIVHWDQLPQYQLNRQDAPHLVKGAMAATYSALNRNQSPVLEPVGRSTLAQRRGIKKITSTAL", "assay": "Inhibition of RSK2 domain1 ACT labeling site LTDFGLSKESIDHEK in human Huh-7 cell lysate at 1 uM by KiNativ Profiling analysis relative to control", "type": "subcellular"}, "[7]": {"biological_target": "Mitogen-activated protein kinase 14 (Homo sapiens, UniProt Q16539)", "sequence (Q16539 whole entry)": "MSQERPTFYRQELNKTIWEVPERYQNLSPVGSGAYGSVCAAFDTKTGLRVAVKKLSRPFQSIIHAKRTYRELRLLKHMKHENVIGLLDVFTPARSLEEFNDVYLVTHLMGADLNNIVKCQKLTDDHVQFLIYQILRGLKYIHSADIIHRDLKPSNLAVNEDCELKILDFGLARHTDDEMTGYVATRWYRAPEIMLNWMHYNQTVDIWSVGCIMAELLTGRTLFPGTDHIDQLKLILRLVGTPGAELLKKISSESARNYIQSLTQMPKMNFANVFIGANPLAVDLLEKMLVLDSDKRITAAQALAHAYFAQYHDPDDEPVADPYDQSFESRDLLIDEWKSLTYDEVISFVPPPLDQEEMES", "assay": "Inhibition of p38alpha Lys2 labeling site in human Huh-7 cells at 1 uM by KiNativ Profiling analysis relative to control", "type": "cell-based"}, "[8]": {"biological_target": "T1, Serine/threonine-protein kinase B-raf", "assay": "Inhibition of BRAF Lys2 labeling site in human A-375 cells at 0.5 uM by KiNativ Profiling analysis relative to control", "type": "cell-based"}, "[9]": {"biological_target": "Activin receptor type-1-like (Homo sapiens) (UniProt P37023)", "assay": "Inhibition of ACVRL1 (unknown origin) at 1 uM by Ambit Kinomescan binding assay relative to control"}, "[10]": {"biological_target": "Cyclin-dependent kinase 8 (Homo sapiens) (UniProt P49336)", "assay": "Inhibition of CDK8 (unknown origin) at 1 uM by Ambit Kinomescan binding assay relative to control"}, "[11]": {"biological_target": "Cyclin-dependent kinase 9 (Homo sapiens) (UniProt P50750)", "assay": "Inhibition of CDK9 Lys2 labeling site in human A-375 cells at 0.5 uM by KiNativ Profiling analysis relative to control", "type": "cell-based"}, "[12]": {"biological_target": "Serine/threonine-protein kinase MARK2 (Homo sapiens) (UniProt Q7KZI7)", "assay": "Inhibition of MARK2 Lys2 labeling site harbouring DLKAENLLLDADMNIK in human A-375 cells at 0.5 uM by KiNativ Profiling analysis relative to control", "type": "cell-based"}, "[13]": {"biological_target": "MAP/microtubule affinity-regulating kinase 3 (Homo sapiens) (UniProt P27448)", "sequence (P27448 whole entry, looked up)": "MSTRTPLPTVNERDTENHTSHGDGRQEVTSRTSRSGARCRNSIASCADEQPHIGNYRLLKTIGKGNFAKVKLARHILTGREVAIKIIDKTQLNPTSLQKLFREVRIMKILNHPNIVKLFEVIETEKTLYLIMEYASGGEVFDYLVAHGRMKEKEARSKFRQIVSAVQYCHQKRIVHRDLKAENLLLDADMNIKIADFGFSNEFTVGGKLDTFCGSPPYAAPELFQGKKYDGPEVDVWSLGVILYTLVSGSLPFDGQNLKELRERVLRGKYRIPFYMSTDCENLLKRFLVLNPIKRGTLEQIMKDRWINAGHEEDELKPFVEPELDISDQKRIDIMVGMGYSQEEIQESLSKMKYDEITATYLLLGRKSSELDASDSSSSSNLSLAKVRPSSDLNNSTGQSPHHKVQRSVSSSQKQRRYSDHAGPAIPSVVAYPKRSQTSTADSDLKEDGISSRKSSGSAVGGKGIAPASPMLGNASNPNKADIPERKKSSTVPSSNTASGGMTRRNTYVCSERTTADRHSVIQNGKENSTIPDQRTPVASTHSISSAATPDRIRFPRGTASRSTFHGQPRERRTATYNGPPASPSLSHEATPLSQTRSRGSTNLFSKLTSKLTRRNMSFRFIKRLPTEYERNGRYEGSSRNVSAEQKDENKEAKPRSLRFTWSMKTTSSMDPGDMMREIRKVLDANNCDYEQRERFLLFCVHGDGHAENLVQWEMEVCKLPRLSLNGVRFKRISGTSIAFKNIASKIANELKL", "assay": "Inhibition of MARK3 Lys2 labeling site in human A-375 cells at 0.5 uM by KiNativ Profiling analysis relative to control", "type": "cell-based"}, "[14]": {"biological_target": "Tyrosine-protein kinase Blk (Homo sapiens) (UniProt P51451)", "assay": "Inhibition of BLK (unknown origin) at 1 uM by Ambit Kinomescan binding assay relative to control; values are per cent of control"}, "[15]": {"biological_target": "Serine/threonine-protein kinase PAK 4 (Homo sapiens) (UniProt O96013)", "assay": "Inhibition of PAK4 (unknown origin) at 1 uM by Ambit Kinomescan binding assay relative to control; values are per cent of control"}, "[16]": {"biological_target": "T2, Phosphatidylinositol 5-phosphate 4-kinase type-2 gamma (Homo sapiens)", "assay": "Inhibition of PIP5K2C (unknown origin) at 1 uM by Ambit Kinomescan binding assay relative to control; values are per cent of control"}, "[17]": {"biological_target": "Fibroblast growth factor receptor 3 (Homo sapiens) (UniProt P22607)", "sequence (P22607 23-806 limits assumed)": "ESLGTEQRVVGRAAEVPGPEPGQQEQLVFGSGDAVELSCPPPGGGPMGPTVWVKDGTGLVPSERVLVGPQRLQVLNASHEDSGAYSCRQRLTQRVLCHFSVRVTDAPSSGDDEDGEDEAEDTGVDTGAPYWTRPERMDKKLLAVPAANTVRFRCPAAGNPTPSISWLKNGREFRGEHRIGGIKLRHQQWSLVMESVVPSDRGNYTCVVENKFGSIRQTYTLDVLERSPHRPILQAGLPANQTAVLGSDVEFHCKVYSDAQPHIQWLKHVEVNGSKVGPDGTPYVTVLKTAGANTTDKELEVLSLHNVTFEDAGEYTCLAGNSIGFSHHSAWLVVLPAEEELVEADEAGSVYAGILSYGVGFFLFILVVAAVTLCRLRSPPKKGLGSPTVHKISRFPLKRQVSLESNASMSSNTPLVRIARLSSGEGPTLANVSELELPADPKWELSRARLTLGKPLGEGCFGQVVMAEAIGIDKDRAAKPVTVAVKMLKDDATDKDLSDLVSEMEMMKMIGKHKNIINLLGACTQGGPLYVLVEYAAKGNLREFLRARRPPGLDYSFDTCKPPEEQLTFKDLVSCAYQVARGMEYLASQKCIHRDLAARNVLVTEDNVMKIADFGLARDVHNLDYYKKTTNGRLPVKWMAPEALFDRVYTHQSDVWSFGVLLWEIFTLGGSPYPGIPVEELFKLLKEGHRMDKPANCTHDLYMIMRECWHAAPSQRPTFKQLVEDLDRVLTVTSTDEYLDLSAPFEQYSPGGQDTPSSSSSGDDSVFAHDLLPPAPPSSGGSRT", "assay": "Inhibition of FGFR3 (unknown origin) at 10 uM by Ambit Kinomescan binding assay relative to control"}, "[18]": {"system": "Receptor-type tyrosine-protein kinase FLT3 (Homo sapiens), P36888 [D835Y]", "assay": "Inhibition of FLT3 D835Y mutant (unknown origin) at 10 uM by Ambit Kinomescan binding assay relative to control"}, "[19]": {"biological_target": "Serine/threonine-protein kinase PAK 6 (Homo sapiens) (UniProt Q9NQU5)", "assay": "Inhibition of PAK6 (unknown origin) at 10 uM by Ambit Kinomescan binding assay"}, "[20]": {"biological_target": "Ribosomal protein S6 kinase alpha-5 (Homo sapiens) (UniProt O75582)", "assay": "Inhibition of N-terminal RPS6KA5 kinase domain 1 (unknown origin) at 10 uM by Ambit Kinomescan binding assay relative to control"}, "[21]": {"biological_target": "Misshapen-like kinase 1 (Homo sapiens) (UniProt Q8N4C8)", "assay": "Inhibition of ZC3/MINK Lys2 labeling site in human A-375 cells at 5 uM by KiNativ Profiling analysis relative to control", "type": "cell-based"}, "[22]": {"biological_target": "DNA-PK/Ku70/Ku85 (Homo sapiens) (UniProt P78527+P12956+P13010)", "assay": "Inhibition of DNAPK ATP labeling site harbouring KGGSWIQEINVAEKNWYPR in human A-375 cells at 0.5 uM by KiNativ Profiling analysis relative to control", "type": "cell-based"}, "[23]": {"biological_target": "RPS6KA1/RPS6KA2/RPS6KA3 (Homo sapiens) (UniProt P51812+Q15349+Q15418)", "sequence (P51812 whole entry, looked up)": "as the sequence (P51812 whole entry, the tested form may be a part) above", "sequence (Q15349 whole entry, looked up)": "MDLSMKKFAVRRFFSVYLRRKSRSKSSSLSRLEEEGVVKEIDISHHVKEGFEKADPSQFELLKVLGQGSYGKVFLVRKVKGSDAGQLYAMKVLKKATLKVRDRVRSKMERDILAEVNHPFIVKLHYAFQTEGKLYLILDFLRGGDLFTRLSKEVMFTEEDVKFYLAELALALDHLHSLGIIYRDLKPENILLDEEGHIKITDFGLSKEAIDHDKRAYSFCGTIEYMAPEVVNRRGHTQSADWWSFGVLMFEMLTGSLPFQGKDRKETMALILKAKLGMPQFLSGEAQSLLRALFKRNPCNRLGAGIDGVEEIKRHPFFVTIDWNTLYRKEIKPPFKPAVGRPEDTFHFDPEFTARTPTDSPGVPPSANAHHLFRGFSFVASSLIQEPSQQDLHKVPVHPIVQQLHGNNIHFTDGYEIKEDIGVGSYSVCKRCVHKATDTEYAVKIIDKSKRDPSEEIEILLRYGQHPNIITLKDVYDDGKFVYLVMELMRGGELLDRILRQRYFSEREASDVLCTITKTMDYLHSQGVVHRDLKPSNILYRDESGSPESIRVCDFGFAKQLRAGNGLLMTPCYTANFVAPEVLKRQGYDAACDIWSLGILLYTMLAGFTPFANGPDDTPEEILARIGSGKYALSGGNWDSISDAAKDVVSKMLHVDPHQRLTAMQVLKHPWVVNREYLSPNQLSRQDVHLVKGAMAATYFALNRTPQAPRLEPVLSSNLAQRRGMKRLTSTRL", "sequence (Q15418 whole entry, looked up)": "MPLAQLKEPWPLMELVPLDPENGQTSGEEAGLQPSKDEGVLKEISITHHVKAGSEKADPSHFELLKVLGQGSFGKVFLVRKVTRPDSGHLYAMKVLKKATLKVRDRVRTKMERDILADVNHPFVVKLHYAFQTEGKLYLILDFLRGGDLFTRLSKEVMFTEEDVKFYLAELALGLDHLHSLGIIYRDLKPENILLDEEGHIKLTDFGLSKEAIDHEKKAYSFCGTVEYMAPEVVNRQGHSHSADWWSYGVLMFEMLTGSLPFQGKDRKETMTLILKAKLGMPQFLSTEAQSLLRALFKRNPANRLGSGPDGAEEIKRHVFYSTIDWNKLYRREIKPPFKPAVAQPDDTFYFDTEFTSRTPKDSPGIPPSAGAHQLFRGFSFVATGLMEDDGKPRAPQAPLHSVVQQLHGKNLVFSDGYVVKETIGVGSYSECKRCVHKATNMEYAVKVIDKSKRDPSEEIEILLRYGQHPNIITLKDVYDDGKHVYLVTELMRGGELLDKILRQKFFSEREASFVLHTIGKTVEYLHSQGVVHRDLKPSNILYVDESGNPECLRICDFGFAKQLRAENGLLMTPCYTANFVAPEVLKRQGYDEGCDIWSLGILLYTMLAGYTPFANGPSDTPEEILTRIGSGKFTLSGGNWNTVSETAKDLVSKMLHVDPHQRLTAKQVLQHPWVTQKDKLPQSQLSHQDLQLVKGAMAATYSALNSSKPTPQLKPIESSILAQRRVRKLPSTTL", "assay": "Inhibition of RSK1/2/3 Domain 1 K2 labeling site harbouring DLKPENILLDEEGHIK in human Huh-7 cells at 1 uM by KiNativ Profiling analysis relative to control", "type": "cell-based"}, "[24]": {"biological_target": "Cyclin-dependent kinase 11A (Homo sapiens) (UniProt Q9UQ88)", "assay": "Inhibition of CDC2L2 (unknown origin) at 10 uM by Ambit Kinomescan binding assay relative to control; values are per cent of control"}}, "note": "Calls of active or inactive are those of the source. No cut-off for these calls is given here.", "data": [{"compound": "CNc1cc(Oc2cc(C(=O)Nc3cc(N4CCN(C)CC4)cc(C(F)(F)F)c3)ccc2C)ncn1", "values": [{"measurement": "inhibition", "setting": "[1]", "result": -1.4, "unit": "%"}, {"measurement": "inhibition", "setting": "[2]", "result": 1.4, "unit": "%"}, {"measurement": "inhibition", "setting": "[3]", "result": 2.8, "unit": "%"}, {"measurement": "inhibition", "setting": "[4]", "result": 25, "unit": "%"}, {"measurement": "inhibition", "setting": "[5]", "result": 11.6, "unit": "%"}, {"measurement": "inhibition", "setting": "[6]", "result": -5, "unit": "%"}, {"measurement": "inhibition", "setting": "[7]", "result": 22.6, "unit": "%"}]}, {"compound": "CCN1CCN(Cc2ccc(NC(=O)c3ccc(C)c(/C=C/c4cnc5[nH]ccc5c4OC)c3)cc2C(F)(F)F)CC1", "values": [{"measurement": "inhibition", "setting": "[8]", "result": 58.7, "unit": "%"}, {"measurement": "inhibition", "setting": "[9]", "result": 100, "unit": "%"}, {"measurement": "inhibition", "setting": "[10]", "result": 25, "unit": "%"}, {"measurement": "inhibition", "setting": "[11]", "result": 1.5, "unit": "%"}, {"measurement": "inhibition", "setting": "[12]", "result": 9.1, "unit": "%"}, {"measurement": "inhibition", "setting": "[13]", "result": 9.1, "unit": "%"}, {"measurement": "residual activity", "setting": "[14]", "result": 0.25, "unit": "%"}, {"measurement": "residual activity", "setting": "[15]", "result": 100, "unit": "%"}, {"measurement": "residual activity", "setting": "[16]", "result": 100, "unit": "%"}]}, {"compound": "CCN1CCN(Cc2ccc(NC(=O)c3ccc(C)c(Oc4ccnc5[nH]ccc45)c3)cc2C(F)(F)F)CC1", "values": [{"measurement": "inhibition", "setting": "[17]", "result": 9.4, "unit": "%"}, {"measurement": "inhibition", "setting": "[18]", "result": 14, "unit": "%"}, {"measurement": "inhibition", "setting": "[19]", "result": "inactive"}, {"measurement": "inhibition", "setting": "[20]", "result": "inactive"}, {"measurement": "inhibition", "setting": "[21]", "result": 92.7, "unit": "%"}, {"measurement": "inhibition", "setting": "[22]", "result": 13.7, "unit": "%"}, {"measurement": "inhibition", "setting": "[23]", "result": 5, "unit": "%"}, {"measurement": "percent of control", "setting": "[24]", "result": 0.05, "unit": "%"}]}]}
